Measurements published in ChEMBL document CHEMBL1201862, “PubChem BioAssay data set” (2004).
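Five compound concentrations were applied to cells in 96-well plates for 48 hours; endpoints were derived by simple linear interpolation of the resulting dose-response curve. Here, GI50 denotes the concentration required for 50% inhibition of growth.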 Activity calls are given as the source filed them. No stated cut-off is given here; in the data, active = GI50 up to about 1.1 µM and inactive = higher.

How the values were obtained:
Experiment in all cases: inhibition of tumour cell growth, NCI panel, 48 h
[1] = tested on: 786-0
[2] = tested on: A549
[3] = tested on: ACHN
[4] = tested on: BT-549
[5] = tested on: CCRF-CEM
[6] = tested on: COLO 205
[7] = tested on: DU-145
[8] = tested on: EKVX
[9] = tested on: HCC 2998
[10] = tested on: HCT-116
[11] = tested on: HCT-15
[12] = tested on: HOP-62
[13] = tested on: HOP-92
[14] = tested on: HT-29
[15] = tested on: Hs-578T
[16] = tested on: IGROV-1
[17] = tested on: K562
[18] = tested on: KM12
[19] = tested on: M14
[20] = tested on: MCF7
[21] = tested on: MDA-MB-231
[22] = tested on: MDA-MB-435
[23] = tested on: MDA-N
[24] = tested on: MOLT-4
[25] = tested on: Malme-3M
[26] = tested on: NCI-H226
[27] = tested on: NCI-H23
[28] = tested on: NCI-H460
[29] = tested on: NCI/ADR-RES
[30] = tested on: OVCAR-3
[31] = tested on: OVCAR-5
[32] = tested on: OVCAR-8
[33] = tested on: PC-3
[34] = tested on: RXF 393
[35] = tested on: SF-268
[36] = tested on: SF-295
[37] = tested on: SF-539
[38] = tested on: SK-MEL-28
[39] = tested on: SK-MEL-5
[40] = tested on: SK-OV-3
[41] = tested on: SN12C
[42] = tested on: SNB-19
[43] = tested on: SNB-75
[44] = tested on: SR
[45] = tested on: SW-620
[46] = tested on: T47D
[47] = tested on: TK-10
[48] = tested on: U-251
[49] = tested on: UACC-257
[50] = tested on: UACC-62
[51] = tested on: UO-31

SMILES: CC(=O)Oc1ccc2c(c1)oc1c3ccc(OC(C)=O)cc3n(C)c(=O)c21
- GI50 [1]: 1.15 µM (inactive)
- GI50 [2]: 35.1 µM (inactive)
- GI50 [3]: 37.4 µM (inactive)
- GI50 [4]: 93.1 µM (inactive)
- GI50 [5]: 18.3 µM (inactive)
- GI50 [6]: 21.6 µM (inactive)
- GI50 [7]: 24 µM (inactive)
- GI50 [8]: 13.2 µM (inactive)
- GI50 [9]: 17.2 µM (inactive)
- GI50 [10]: 20.9 µM (inactive)
- GI50 [11]: 36.5 µM
- GI50 [12]: 34.9 µM (inactive)
- GI50 [13]: 28.7 µM (inactive)
- GI50 [14]: 31.8 µM (inactive)
- GI50 [15]: 4.48 µM (inactive)
- GI50 [16]: 29.9 µM (inactive)
- GI50 [17]: 30.5 µM (inactive)
- GI50 [18]: 3.78 µM (inactive)
- GI50 [19]: 10.3 µM (inactive)
- GI50 [20]: 35.6 µM (inactive)
- GI50 [21]: 27 µM (inactive)
- GI50 [22]: 37.8 µM (inactive)
- GI50 [23]: 32 µM (inactive)
- GI50 [24]: 25.1 µM (inactive)
- GI50 [25]: 6.47 µM (inactive)
- GI50 [26]: 10.2 µM (inactive)
- GI50 [27]: 46.3 µM (inactive)
- GI50 [28]: 36.3 µM (inactive)
- GI50 [29]: 15.7 µM (inactive)
- GI50 [30]: 32.5 µM (inactive)
- GI50 [31]: 51.9 µM (inactive)
- GI50 [32]: 22.5 µM (inactive)
- GI50 [33]: 22.1 µM (inactive)
- GI50 [34]: 38.7 µM (inactive)
- GI50 [35]: 12.5 µM (inactive)
- GI50 [36]: 36.7 µM (inactive)
- GI50 [37]: 27.1 µM (inactive)
- GI50 [38]: 16.3 µM (inactive)
- GI50 [39]: 4.71 µM (inactive)
- GI50 [40]: 14.8 µM (inactive)
- GI50 [41]: 27.2 µM (inactive)
- GI50 [42]: > 100 µM (inactive)
- GI50 [43]: 1.14 µM (inactive)
- GI50 [44]: 33.5 µM (inactive)
- GI50 [45]: 26.4 µM (inactive)
- GI50 [46]: 34.8 µM (inactive)
- GI50 [47]: 70.8 µM (inactive)
- GI50 [48]: 55 µM (inactive)
- GI50 [49]: 21.9 µM (inactive)
- GI50 [50]: 34.8 µM (inactive)
- GI50 [51]: 50.1 µM (inactive)
